Test: High fat diet induced obesity (DIO) mouse model
Format: in vivo, C57CL/6J mice
Details: for NSAH (sum): liver pathology; for Total Body Weight: DIO mice (Table 52); for Total Body Weight / Body Weight: in g (unit assumed)
Procedure: C57CL/6J mice aged 4-6 weeks (Korea Research Institute of Bioscience & Biotechnology, Ohchang, Korea) were housed in Polycarbonate cages (five mice per cage) in a room with a 12 hr:12 hr light-dark cycle and an ambient temperature of 24° C. All the mice were fed a commercial chow diet for 1 week after arrival in the animal facility. Mice were then divided into normal and obesity groups and fed with normal diet (ND) and high fat diets (HFD) respectively. The HFD group was divided into multiple treatment groups: a high fat diet vehicle group (HFD), an orlistat (purchased as OTC drug Alli®) positive control treatment group (ORI, 40 mg/kg of animal weight, 2 times/day) and optionally a sibutramine positive control treatment group (10 mg/kg, 1 time/day). The HFD contained 340 g of fat/kg of HFD (310 g lard plus 30 g soybean oil; Harlan Laboratories, USA). The HFD was formulated to provide 60% of the total energy generated by the diet from fat by replacing carbohydrate energy with lard and soybean oil, whereas the normal diet (ND) group was fed a diet providing only 18% of the total diet energy from fat(Harlan Laboratories, USA).
Body weight was measured once each week and feed intake was measured twice per week. At the end of the experimental period, following a 12 hr. fasting period, the animals were anesthetized with ether, and blood was drawn from the abdominal vein. Liver and kidney and adipose tissues (epididymal, retroperitoneal, perirenal adipose tissues) were removed from each animal, rinsed with physiological saline, and weighed. Serum concentrations of glucose, total cholesterol, triglycerides, and LDL-cholesterol were determined using automatic analyzer (INTEGRA 400, Roche, Germany). Statistical significance of test results was measured using the Student's t-test.

[1] = DIO mice blood biochemistry, SIB 10 mg/kg, ORI 40 mg/kg, Mutamba extract 32 (G1) 1000 mg/kg, mean
[2] = DIO mice blood biochemistry, SIB 10 mg/kg, ORI 40 mg/kg, Mutamba extract 33-2 G1 1000 mg/kg, mean
[3] = DIO mice liver pathology score, SIB 10 mg/kg, ORI 40 mg/kg, Mutamba extract 32 (G1) 1000 mg/kg, mean
[4] = DIO mice, SIB 10 mg/kg, ORI 40 mg/kg, Mutamba extract 32 (G1) 1000 mg/kg, mean
[5] = DIO mice, SIB 10 mg/kg, ORI 40 mg/kg, Mutamba extract 33-2 G1 1000 mg/kg, mean
[6] = DIO mice, combination (1:1) 2000 mg/kg twice a day, group mean
[7] = liver pathology score, mice fed a high fat diet, Mutamba fractions 250 mg/kg oral 2 times per day, mean
[8] = liver pathology score, mice fed a high fat diet, Mutamba fractions 250 mg/kg oral 2 times per day, mean (table printed twice)
[9] = mice fed a high fat diet, Mutamba fractions 250 mg/kg oral 2 times per day, mean
[10] = sibutramine 10 mg/kg, 1 time/day
[11] = sibutramine 10 mg/kg, 1 time/day, listed as Sibutramine
[12] = week 1, mice fed a high fat diet, Mutamba fractions 250 mg/kg oral 2 times per day, mean
[13] = week 2, mice fed a high fat diet, Mutamba fractions 250 mg/kg oral 2 times per day, mean
[14] = week 3, mice fed a high fat diet, Mutamba fractions 250 mg/kg oral 2 times per day, mean
[15] = week 4, mice fed a high fat diet, Mutamba fractions 250 mg/kg oral 2 times per day, mean
[16] = week 5, mice fed a high fat diet, Mutamba fractions 250 mg/kg oral 2 times per day, mean
[17] = week 6, mice fed a high fat diet, Mutamba fractions 250 mg/kg oral 2 times per day, mean
[18] = week 7, mice fed a high fat diet, Mutamba fractions 250 mg/kg oral 2 times per day, mean
[19] = week 8, mice fed a high fat diet, Mutamba fractions 250 mg/kg oral 2 times per day, mean

## CC(C)CC(N(C)C)C1(c2ccc(Cl)cc2)CCC1 (stereo not shown) [SIB, sibutramine]
[1]
  ALT: 37.00 U/L
  AST: 65.95 U/L
  HDL-C: 68.73 mg/dL
  LDL-C: 6.18 mg/dL
  T-chol: 155.75 mg/dL
  TG: 49.75 mg/dL
[2]
  LDL-C: 5.26 mg/dL
  T-chol: 158.60 mg/dL
  TG: 46.60 mg/dL
[3]
  Hepatocellular ballooning (0-2): 0.25
  Lobular Inflammation (0-3): 0.50
  Steatosis (0-3): 0.50
DIO mice liver pathology, sum of scores, SIB 10 mg/kg, ORI 40 mg/kg, Mutamba extract 32 (G1) 1000 mg/kg, mean
  NASH (sum): 1.25
DIO mice, 2-week, Compositions 1, 2 1300 mg/kg/day, 3, 9 1700 mg/kg/day, orlistat 40 mg/kg 2 times/day, sibutramine 10 mg/kg 1 time/day
  Weight Gain 2-week: −1.40
DIO mice, 2-week, doses as in Example 76
  Average Feed Intake 2-week: 2.87
DIO mice, 2 weeks, Mean, Weight Gain (g/day)/Feed Intake (g/day)
  Food Efficiency Ratio (FER) 2 weeks: −0.099
DIO mice, 7-week, Compositions 1, 2 1300 mg/kg/day, 3, 9 1700 mg/kg/day, orlistat 40 mg/kg 2 times/day, sibutramine 10 mg/kg 1 time/day
  Weight Gain 7-week: 6.12
DIO mice, 7-week, doses as in Example 76
  Average Feed Intake 7-week: 2.67
DIO mice, 7 weeks, Mean, Weight Gain (g/day)/Feed Intake (g/day)
  Food Efficiency Ratio (FER) 7 weeks: 0.054
DIO mice, FER = body weight gain (g/day)/food intake (g/day), SIB 10 mg/kg, ORI 40 mg/kg, Mutamba extract 32 (G1) 1000 mg/kg, mean
  Food Efficiency Ratio (FER): 0.008
DIO mice, FER = body weight gain (g/day)/food intake (g/day), SIB 10 mg/kg, ORI 40 mg/kg, Mutamba extract 33-2 G1 1000 mg/kg, mean
  Food Efficiency Ratio (FER): 0.043
[4]
  Average Body Weight Gain: 0.021 g/day
  Average Food Intake: 2.724 g/day
[5]
  Body Weight Gain: 0.114 g/day
  Food Intake: 2.624 g/day
DIO mice, combination (1:1) 2000 mg/kg twice a day, FER = body weight gain/food intake
  FER (Food efficiency ratio): −0.014
[6]
  Food Intake: 3.564 g/day
  Weight Gain: -0.051 g/day
[7]
  Hepatocellular ballooning (0-2): 0.40
  Lobular Inflammation (0-3): 1.60
  Steatosis (0-3): 1.20
[8]
  Hepatocellular ballooning (0-2): 0.40
  Lobular Inflammation (0-3): 1.60
  Steatosis (0-3): 1.20
Sum of scores, mice fed a high fat diet, Mutamba fractions 250 mg/kg oral 2 times per day, mean
  NSAH (sum): 3.20
Sum of scores, mice fed a high fat diet, Mutamba fractions 250 mg/kg oral 2 times per day, mean (table printed twice)
  NSAH (sum): 3.20
Mice fed a high fat diet, FER = body weight gain (g/day)/food intake (g/day), Mutamba fractions 250 mg/kg oral 2 times per day, mean
  FER (Food efficiency ratio): 0.043
[9]
  Body Weight Gain: 0.114 g/day
  Food Intake: 2.624 g/day
[10]
  blood biochemistry parameters vs HFD group: statistically significant decrease in LDL-cholesterol
  body weight gain vs HFD group: statistically significant decreases in body weight gain across all weeks of the study
  liver pathology (NASH score) vs HFD group: statistically significant decreases in Steatosis, Lobular inflammation, Hepatocellular ballooning and NASH score
  total body weight vs HFD group: statistically significant decreases in total body weight from week 1, 2, 3 and 7
  weight gain per day, food intake per day, food efficiency ratio (FER) vs HFD group: average body weight gain per day and food efficiency ratio (FER) endpoints were significantly lowered
[11]
  body weight gain vs HFD group: did not
  weight gain per day, food intake per day, food efficiency ratio (FER) vs HFD group: statistically significant reduction of average food intake after 7 weeks of treatment
Sibutramine 10 mg/kg, 1 time/day, listed as sibutramine
  weight gain per day, food intake per day, food efficiency ratio (FER) vs HFD group: not statistically significant
Week 0, SIB 10 mg/kg
  Total Body Weight: 39.70
Week 0, mice fed a high fat diet, Mutamba fractions 250 mg/kg oral 2 times per day, mean
  Body Weight: 38.41
Week 1, DIO mice, SIB 10 mg/kg, ORI 40 mg/kg, Mutamba extract 32 (G1) 1000 mg/kg/day oral, mean
  Body Weight Gain: −5.46
Week 1, DIO mice, SIB 10 mg/kg, ORI 40 mg/kg, Mutamba extract 33-2 G1 1000 mg/kg, mean
  Body Weight Gain: −2.72
Week 1, DIO mice, combination (1:1) 2000 mg/kg twice a day, group mean
  Weight Gain: −3.63
Week 1, DIO mice, combination (10:1) 1100 mg/kg twice a day, group mean
  Weight Gain: −3.63
Week 1, SIB 10 mg/kg
  Total Body Weight: 34.24
[12]
  Body Weight Gain: −2.72
  Body Weight: 35.69
Week 2, DIO mice, SIB 10 mg/kg, ORI 40 mg/kg, Mutamba extract 32 (G1) 1000 mg/kg/day oral, mean
  Body Weight Gain: −4.84
Week 2, DIO mice, SIB 10 mg/kg, ORI 40 mg/kg, Mutamba extract 33-2 G1 1000 mg/kg, mean
  Body Weight Gain: −2.39
Week 2, DIO mice, combination (1:1) 2000 mg/kg twice a day, group mean
  Weight Gain: −5.37
Week 2, DIO mice, combination (10:1) 1100 mg/kg twice a day, group mean
  Weight Gain: −5.37
Week 2, SIB 10 mg/kg
  Total Body Weight: 33.96
[13]
  Body Weight Gain: −2.39
  Body Weight: 36.03
Week 3, DIO mice, SIB 10 mg/kg, ORI 40 mg/kg, Mutamba extract 32 (G1) 1000 mg/kg/day oral, mean
  Body Weight Gain: −2.75
Week 3, DIO mice, SIB 10 mg/kg, ORI 40 mg/kg, Mutamba extract 33-2 G1 1000 mg/kg, mean
  Body Weight Gain: −0.39
Week 3, DIO mice, combination (1:1) 2000 mg/kg twice a day, group mean
  Weight Gain: −4.69
Week 3, DIO mice, combination (10:1) 1100 mg/kg twice a day, group mean
  Weight Gain: −4.69
Week 3, SIB 10 mg/kg
  Total Body Weight: 36.05
[14]
  Body Weight Gain: −0.39
  Body Weight: 38.02
Week 4, DIO mice, SIB 10 mg/kg, ORI 40 mg/kg, Mutamba extract 32 (G1) 1000 mg/kg/day oral, mean
  Body Weight Gain: −2.17
Week 4, DIO mice, SIB 10 mg/kg, ORI 40 mg/kg, Mutamba extract 33-2 G1 1000 mg/kg, mean
  Body Weight Gain: 1.47
Week 4, DIO mice, combination (1:1) 2000 mg/kg twice a day, group mean
  Weight Gain: −4.82
Week 4, DIO mice, combination (10:1) 1100 mg/kg twice a day, group mean
  Weight Gain: −4.82
Week 4, SIB 10 mg/kg
  Total Body Weight: 36.64
[15]
  Body Weight Gain: 1.47
  Body Weight: 39.89
Week 5, DIO mice, SIB 10 mg/kg, ORI 40 mg/kg, Mutamba extract 32 (G1) 1000 mg/kg/day oral, mean
  Body Weight Gain: −1.38
Week 5, DIO mice, SIB 10 mg/kg, ORI 40 mg/kg, Mutamba extract 33-2 G1 1000 mg/kg, mean
  Body Weight Gain: 2.54
Week 5, DIO mice, combination (1:1) 2000 mg/kg twice a day, group mean
  Weight Gain: −4.25
Week 5, DIO mice, combination (10:1) 1100 mg/kg twice a day, group mean
  Weight Gain: −4.25
Week 5, SIB 10 mg/kg
  Total Body Weight: 37.42
[16]
  Body Weight Gain: 2.54
  Body Weight: 40.95
Week 6, DIO mice, SIB 10 mg/kg, ORI 40 mg/kg, Mutamba extract 32 (G1) 1000 mg/kg/day oral, mean
  Body Weight Gain: −0.27
Week 6, DIO mice, SIB 10 mg/kg, ORI 40 mg/kg, Mutamba extract 33-2 G1 1000 mg/kg, mean
  Body Weight Gain: 3.99
Week 6, DIO mice, combination (1:1) 2000 mg/kg twice a day, group mean
  Weight Gain: −3.90
Week 6, DIO mice, combination (10:1) 1100 mg/kg twice a day, group mean
  Weight Gain: −3.90
Week 6, SIB 10 mg/kg
  Total Body Weight: 38.54
[17]
  Body Weight Gain: 3.99
  Body Weight: 42.40
Week 7, DIO mice, SIB 10 mg/kg, ORI 40 mg/kg, Mutamba extract 32 (G1) 1000 mg/kg/day oral, mean
  Body Weight Gain: −0.06
Week 7, DIO mice, SIB 10 mg/kg, ORI 40 mg/kg, Mutamba extract 33-2 G1 1000 mg/kg, mean
  Body Weight Gain: 5.15
Week 7, DIO mice, combination (1:1) 2000 mg/kg twice a day, group mean
  Weight Gain: −2.27
Week 7, DIO mice, combination (10:1) 1100 mg/kg twice a day, group mean
  Weight Gain: −2.27
Week 7, SIB 10 mg/kg
  Total Body Weight: 38.74
[18]
  Body Weight Gain: 5.15
  Body Weight: 43.57
Week 8, DIO mice, SIB 10 mg/kg, ORI 40 mg/kg, Mutamba extract 32 (G1) 1000 mg/kg/day oral, mean
  Body Weight Gain: 1.15
Week 8, DIO mice, SIB 10 mg/kg, ORI 40 mg/kg, Mutamba extract 33-2 G1 1000 mg/kg, mean
  Body Weight Gain: 6.27
Week 8, SIB 10 mg/kg
  Total Body Weight: 39.95
[19]
  Body Weight Gain: 6.27
  Body Weight: 44.69

From patent US20240024403A1, “Compositions and Methods for Managing Weight” (Unigen, Inc., priority 2012, published 2024)
